Measured values: article PMC10382584, “Macrocyclization of linear molecules by deep learning to facilitate macrocyclic drug candidates discovery” (Nature Communications, 2023)

How the values were obtained:
Assay in all cases: biochemical
Set-up in all cases: DiscoveRx KINOMEscan competition binding, percent of DMSO control signal at 100 nM
Details in all cases: read-out: Fig. 4a / Percent Control / Compound 1; percent of DMSO control, competition binding
[1] = target: T1, ABL1(M351T)-phosphorylated (Homo sapiens, UniProt P00519, M351T)
T1 construct: phosphorylated

NEK7 = NEK7 (Homo sapiens, UniProt Q8TDX7)
NEK7, sequence (Q8TDX7 whole entry): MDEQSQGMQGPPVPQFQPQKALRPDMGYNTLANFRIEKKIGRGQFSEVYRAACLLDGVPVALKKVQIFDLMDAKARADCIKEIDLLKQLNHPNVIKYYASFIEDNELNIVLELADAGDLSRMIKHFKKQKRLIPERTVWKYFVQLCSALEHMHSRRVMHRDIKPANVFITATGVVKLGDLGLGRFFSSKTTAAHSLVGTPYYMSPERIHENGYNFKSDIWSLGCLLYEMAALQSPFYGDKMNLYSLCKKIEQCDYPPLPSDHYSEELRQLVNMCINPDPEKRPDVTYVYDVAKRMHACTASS

PAK1 = PAK1 (Homo sapiens, UniProt Q13153)
ARK5 = target: T2, ARK5 (Homo sapiens, UniProt O60285)
T2 construct: gene NUAK1

[2] = target: T3, ABL1(H396P)-nonphosphorylated (Homo sapiens, UniProt P00519, H396P)
T3 construct: nonphosphorylated

CSNK1E = CSNK1E (Homo sapiens, UniProt P49674)
CSNK1E, sequence (P49674 whole entry): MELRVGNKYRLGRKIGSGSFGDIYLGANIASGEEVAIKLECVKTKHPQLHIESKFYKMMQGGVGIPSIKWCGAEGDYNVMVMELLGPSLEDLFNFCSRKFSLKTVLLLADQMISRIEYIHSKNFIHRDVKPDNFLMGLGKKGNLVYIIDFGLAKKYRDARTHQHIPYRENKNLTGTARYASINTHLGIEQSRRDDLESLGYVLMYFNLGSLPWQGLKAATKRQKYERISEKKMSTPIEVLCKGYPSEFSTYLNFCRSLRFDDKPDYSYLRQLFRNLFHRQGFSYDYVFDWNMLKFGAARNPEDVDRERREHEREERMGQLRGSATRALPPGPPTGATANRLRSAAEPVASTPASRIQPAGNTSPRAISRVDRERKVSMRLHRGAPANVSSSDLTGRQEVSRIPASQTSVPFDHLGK

ROCK2 = ROCK2 (Homo sapiens, UniProt O75116)
ROCK2, sequence (O75116 whole entry): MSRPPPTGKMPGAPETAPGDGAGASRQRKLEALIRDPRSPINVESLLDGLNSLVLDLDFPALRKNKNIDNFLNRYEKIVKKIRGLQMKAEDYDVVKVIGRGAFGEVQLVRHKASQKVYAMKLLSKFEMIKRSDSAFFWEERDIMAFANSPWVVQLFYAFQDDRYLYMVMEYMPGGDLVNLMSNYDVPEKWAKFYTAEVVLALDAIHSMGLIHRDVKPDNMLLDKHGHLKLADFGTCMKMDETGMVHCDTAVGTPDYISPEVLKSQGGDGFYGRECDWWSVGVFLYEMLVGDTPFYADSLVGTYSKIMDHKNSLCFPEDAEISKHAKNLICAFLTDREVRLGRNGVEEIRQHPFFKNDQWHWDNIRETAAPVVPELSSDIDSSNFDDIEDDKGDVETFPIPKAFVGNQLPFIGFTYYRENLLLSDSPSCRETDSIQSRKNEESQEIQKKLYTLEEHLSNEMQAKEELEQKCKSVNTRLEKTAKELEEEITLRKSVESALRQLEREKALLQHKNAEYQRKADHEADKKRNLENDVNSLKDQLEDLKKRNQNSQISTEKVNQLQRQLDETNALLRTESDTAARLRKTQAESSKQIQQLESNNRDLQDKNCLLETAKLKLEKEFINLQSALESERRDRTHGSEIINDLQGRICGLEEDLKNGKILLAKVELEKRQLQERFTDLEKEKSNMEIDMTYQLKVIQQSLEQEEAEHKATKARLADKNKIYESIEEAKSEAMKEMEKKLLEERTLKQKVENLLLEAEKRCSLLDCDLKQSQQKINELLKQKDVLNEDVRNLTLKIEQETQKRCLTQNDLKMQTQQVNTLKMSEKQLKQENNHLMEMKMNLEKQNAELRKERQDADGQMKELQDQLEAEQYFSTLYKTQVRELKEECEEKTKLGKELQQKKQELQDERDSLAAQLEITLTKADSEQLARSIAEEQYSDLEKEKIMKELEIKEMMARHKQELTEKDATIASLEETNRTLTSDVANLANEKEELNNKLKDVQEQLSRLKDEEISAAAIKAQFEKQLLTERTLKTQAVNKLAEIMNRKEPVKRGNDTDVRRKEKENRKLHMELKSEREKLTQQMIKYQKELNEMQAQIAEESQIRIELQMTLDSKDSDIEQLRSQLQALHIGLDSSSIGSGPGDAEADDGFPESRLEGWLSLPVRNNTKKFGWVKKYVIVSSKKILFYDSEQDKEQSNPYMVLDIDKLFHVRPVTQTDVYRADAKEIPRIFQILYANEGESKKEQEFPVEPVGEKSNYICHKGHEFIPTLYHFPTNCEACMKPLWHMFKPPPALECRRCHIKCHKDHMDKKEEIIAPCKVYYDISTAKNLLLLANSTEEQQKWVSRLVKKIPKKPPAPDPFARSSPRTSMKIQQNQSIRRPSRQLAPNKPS

AKT3 = AKT3 (Homo sapiens, UniProt Q9Y243)
NEK9 = NEK9 (Homo sapiens, UniProt Q8TD19)
[3] = target: T4, TYK2(JH2domain-pseudokinase) (Homo sapiens, UniProt P29597)
T4 construct: JH2domain-pseudokinase

DYRK2 = DYRK2 (Homo sapiens, UniProt Q92630)
VPS34 = target: T5, VPS34 (Homo sapiens, UniProt Q8NEB9)
T5 construct: gene PIK3C3
T5 sequence (Q8NEB9 whole entry): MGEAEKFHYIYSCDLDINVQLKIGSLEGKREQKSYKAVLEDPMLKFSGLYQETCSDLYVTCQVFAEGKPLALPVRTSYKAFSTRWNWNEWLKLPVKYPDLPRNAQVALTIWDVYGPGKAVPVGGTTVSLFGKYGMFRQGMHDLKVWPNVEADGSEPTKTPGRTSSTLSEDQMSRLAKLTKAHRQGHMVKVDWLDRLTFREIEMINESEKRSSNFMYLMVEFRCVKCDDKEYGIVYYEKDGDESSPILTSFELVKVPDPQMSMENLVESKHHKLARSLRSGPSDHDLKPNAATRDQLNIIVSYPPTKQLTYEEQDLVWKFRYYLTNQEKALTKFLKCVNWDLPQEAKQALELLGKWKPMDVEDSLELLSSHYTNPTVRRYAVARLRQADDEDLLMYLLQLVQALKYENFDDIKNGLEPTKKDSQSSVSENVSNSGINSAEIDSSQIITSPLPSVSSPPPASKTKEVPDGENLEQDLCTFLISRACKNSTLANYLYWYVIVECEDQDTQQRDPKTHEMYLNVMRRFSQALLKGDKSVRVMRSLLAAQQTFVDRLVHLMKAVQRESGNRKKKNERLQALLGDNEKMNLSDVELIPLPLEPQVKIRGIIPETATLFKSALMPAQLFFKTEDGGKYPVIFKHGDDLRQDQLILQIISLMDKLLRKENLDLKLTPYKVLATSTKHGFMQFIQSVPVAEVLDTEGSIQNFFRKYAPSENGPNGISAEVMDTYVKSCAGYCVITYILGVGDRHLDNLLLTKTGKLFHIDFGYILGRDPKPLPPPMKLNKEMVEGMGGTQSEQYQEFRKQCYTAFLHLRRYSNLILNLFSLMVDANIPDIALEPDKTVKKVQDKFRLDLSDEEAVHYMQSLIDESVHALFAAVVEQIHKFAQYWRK

EPHA2 = EPHA2 (Homo sapiens, UniProt P29317)
[4] = target: T6, RPS6KA4(Kin.Dom.2-C-terminal) (Homo sapiens, UniProt O75676)
T6 construct: Kin.Dom.2-C-terminal

[5] = target: T7, JAK1(JH2domain-pseudokinase) (Homo sapiens, UniProt P23458)
T7 construct: JH2domain-pseudokinase

STK36 = STK36 (Homo sapiens, UniProt Q9NRP7)
MAPKAPK5 = MAPKAPK5 (Homo sapiens, UniProt Q8IW41)
CDK4-cyclinD1 = target: T8, CDK4-cyclinD1 (Homo sapiens, UniProt P11802)
T8 construct: cyclinD1

PLK1 = PLK1 (Homo sapiens, UniProt P53350)
MST1R = MST1R (Homo sapiens, UniProt Q04912)
BMPR2 = BMPR2 (Homo sapiens, UniProt Q13873)
BMPR2, sequence (Q13873 whole entry): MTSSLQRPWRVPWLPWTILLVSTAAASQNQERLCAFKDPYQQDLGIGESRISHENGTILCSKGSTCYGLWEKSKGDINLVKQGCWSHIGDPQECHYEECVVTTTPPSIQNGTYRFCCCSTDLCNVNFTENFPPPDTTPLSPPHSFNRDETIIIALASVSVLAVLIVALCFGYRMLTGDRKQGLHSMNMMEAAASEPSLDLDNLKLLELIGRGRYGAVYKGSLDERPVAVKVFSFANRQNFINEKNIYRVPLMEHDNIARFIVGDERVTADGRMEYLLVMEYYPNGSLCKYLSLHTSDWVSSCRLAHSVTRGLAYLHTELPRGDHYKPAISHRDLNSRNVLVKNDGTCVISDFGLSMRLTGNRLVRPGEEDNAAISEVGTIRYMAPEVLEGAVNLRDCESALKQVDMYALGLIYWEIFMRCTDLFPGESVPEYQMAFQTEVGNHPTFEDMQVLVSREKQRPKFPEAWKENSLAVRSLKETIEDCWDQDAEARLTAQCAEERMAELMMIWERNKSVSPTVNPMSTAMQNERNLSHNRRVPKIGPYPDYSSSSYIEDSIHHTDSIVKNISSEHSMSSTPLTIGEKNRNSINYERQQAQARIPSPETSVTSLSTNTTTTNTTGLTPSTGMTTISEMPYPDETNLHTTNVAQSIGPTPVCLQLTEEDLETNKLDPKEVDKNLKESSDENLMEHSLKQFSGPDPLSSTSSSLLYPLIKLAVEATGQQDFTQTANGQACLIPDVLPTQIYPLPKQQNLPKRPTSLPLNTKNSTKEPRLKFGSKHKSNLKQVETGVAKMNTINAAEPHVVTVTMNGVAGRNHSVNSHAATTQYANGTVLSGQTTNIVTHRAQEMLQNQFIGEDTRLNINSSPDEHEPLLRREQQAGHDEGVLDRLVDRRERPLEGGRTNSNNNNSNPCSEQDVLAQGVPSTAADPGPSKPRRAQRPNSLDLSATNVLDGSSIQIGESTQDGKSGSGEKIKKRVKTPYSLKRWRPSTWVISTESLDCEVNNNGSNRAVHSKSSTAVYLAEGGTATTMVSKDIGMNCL

ABL1-phosphorylated = target: T9, ABL1-phosphorylated (Homo sapiens, UniProt P00519)
T9 construct: phosphorylated

CSNK1A1L = CSNK1A1L (Homo sapiens, UniProt Q8N752)
CSNK1A1L, sequence (Q8N752 whole entry): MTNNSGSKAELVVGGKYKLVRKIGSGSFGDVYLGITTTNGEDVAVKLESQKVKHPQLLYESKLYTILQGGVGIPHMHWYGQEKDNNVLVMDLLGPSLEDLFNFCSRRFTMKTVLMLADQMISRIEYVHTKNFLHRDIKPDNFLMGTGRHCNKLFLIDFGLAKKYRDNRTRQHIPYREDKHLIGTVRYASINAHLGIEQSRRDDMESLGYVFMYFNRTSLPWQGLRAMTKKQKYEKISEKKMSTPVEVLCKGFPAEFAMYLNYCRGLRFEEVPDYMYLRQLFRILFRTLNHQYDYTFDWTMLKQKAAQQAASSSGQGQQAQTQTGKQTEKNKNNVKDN

RIPK2 = RIPK2 (Homo sapiens, UniProt O43353)
RIPK2, sequence (O43353 whole entry): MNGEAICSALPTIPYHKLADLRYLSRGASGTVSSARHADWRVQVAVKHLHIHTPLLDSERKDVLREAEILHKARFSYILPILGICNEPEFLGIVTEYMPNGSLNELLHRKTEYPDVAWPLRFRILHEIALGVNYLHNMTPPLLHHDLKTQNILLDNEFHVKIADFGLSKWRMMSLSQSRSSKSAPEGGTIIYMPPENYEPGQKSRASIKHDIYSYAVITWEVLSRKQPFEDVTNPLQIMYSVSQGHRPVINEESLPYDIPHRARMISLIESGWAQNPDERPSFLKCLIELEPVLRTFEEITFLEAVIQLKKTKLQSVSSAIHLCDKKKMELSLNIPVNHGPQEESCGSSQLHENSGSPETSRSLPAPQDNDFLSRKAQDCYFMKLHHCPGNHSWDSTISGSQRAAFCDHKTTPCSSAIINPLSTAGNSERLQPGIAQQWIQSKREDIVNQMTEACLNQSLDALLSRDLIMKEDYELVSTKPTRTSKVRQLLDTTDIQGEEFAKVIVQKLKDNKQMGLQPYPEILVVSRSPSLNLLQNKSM
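Further: KINOMEscan kinase panel binding assay, signal normalized between DMSO as 100% and a positive control compound as 0%.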

Cc1cnc2nc1Nc1cccc(c1)COCc1cc(ccc1OCCN1CCCC1)N2 [Compound 1]
remaining binding at 0.1 µM [1]: 63%
remaining binding at 0.1 µM (NEK7): 72%
remaining binding at 0.1 µM (PAK1): 100%
remaining binding at 0.1 µM (ARK5): 51%
remaining binding at 0.1 µM [2]: 37%
remaining binding at 0.1 µM (CSNK1E): 70%
remaining binding at 0.1 µM (ROCK2): 83%
remaining binding at 0.1 µM (AKT3): 100%
remaining binding at 0.1 µM (NEK9): 83%
remaining binding at 0.1 µM [3]: 64%
remaining binding at 0.1 µM (DYRK2): 90%
remaining binding at 0.1 µM (VPS34): 27%
remaining binding at 0.1 µM (EPHA2): 82%
remaining binding at 0.1 µM [4]: 75%
remaining binding at 0.1 µM [5]: 36%
remaining binding at 0.1 µM (STK36): 97%
remaining binding at 0.1 µM (MAPKAPK5): 69%
remaining binding at 0.1 µM (CDK4-cyclinD1): 76%
remaining binding at 0.1 µM (PLK1): 94%
remaining binding at 0.1 µM (MST1R): 100%
remaining binding at 0.1 µM (BMPR2): 87%
remaining binding at 0.1 µM (ABL1-phosphorylated): 90%
remaining binding at 0.1 µM (CSNK1A1L): 61%
remaining binding at 0.1 µM (RIPK2): 99%
